# Experimental data taken from patent US20190358181A1, “METHODS FOR AUTISM SPECTRUM DISORDER PHARMACOTHERAPY” (priority 2017, published 2019).
# Test system: 610 metabolites from 63 biochemical pathways
# Test: Targeted broad-spectrum plasma metabolomic analysis (LC-MS/MS), paired pre-infusion vs post-infusion (2-days and 6-weeks)
# Format: in vivo, human
# Settings: for Linear Ratio / VIP Score / Z Abs / Z Score: plasma
# Method: Targeted, broad-spectrum, plasma metabolomic analysis of 610 metabolites from 63 biochemical pathways was performed by high performance liquid chromatography and tandem mass spectrometry (LC-MS/MS) on the samples collected from patients in Example 1. Venous blood was collected between the hours of 8 am and 5 pm, at least 3 hours after the last meal, into lithium-heparin vacutainer tubes (BD #367884). Plasma was separated by centrifugation at 900 g×10 minutes at room temperature within one hour of collection. The resulting fresh lithium-heparin plasma was transferred to labeled 1.2 ml or 2.0 ml externally threaded cryotubes with a minimum headspace air gap for storage at −80° C. for analysis. Samples were analyzed on an AB SCIEX QTRAP 5500 triple quadrupole mass spectrometer equipped with a Turbo V electrospray ionization (ESI) source, Shimadzu LC-20A UHPLC system, and a PAL CTC autosampler. Typically, 90 μl of plasma was thawed on ice and transferred to a 1.7 ml Eppendorf tube. Five (5.0) μl of a cocktail containing 25-35 commercial stable isotope internal standards, and 5.0 μl of 57 stable isotope internal standards that were custom-synthesized in E. coli NCM3722, Caenorhabditis elegans N2, and Komagataella phaffii (ATCC 76273; formerly known as Pichia pastoris) by metabolic labeling with 13C-glucose and 13C-bicarbonate, were added, mixed, and incubated for 10 min at 20° C. to permit small molecules and vitamins in the internal standards to associate with plasma binding proteins. Macromolecules (protein, DNA, RNA, glycans, etc.) were precipitated by extraction with 4 volumes (400 μl) of cold (−20° C.), acetonitrile:methanol (50:50) (LCMS grade, Cat #LC015-2.5 and GC230-4, Burdick & Jackson, Honeywell), vortexed vigorously, and incubated on crushed ice for 10 min, then removed by centrifugation at 16,000 g×10 min at 4° C. The supernatants containing the extracted metabolites and internal standards in the resulting 40:40:20 solvent mix of acetonitrile:methanol:water were transferred to labeled cryotubes and stored at −80° C. for LCMS/MS analysis.
# LC-MS/MS analysis was performed by scheduled multiple reaction monitoring (sMRM) under Analyst v1.6.2 software control in both negative and positive mode with rapid polarity switching (50 ms). Nitrogen was used for curtain gas (set to 30), collision gas (set to high), ion source gas 1 and 2 (set to 35). The source temperature was 500° C. Spray voltage was set to −4500 V in negative mode and 5500 V in positive mode. The values for Q1 and Q3 mass-to-charge ratios (m/z), declustering potential (DP), entrance potential (EP), collision energy (CE), and collision cell exit potential (CXP) were determined and optimized for each MRM for each metabolite. Ten microliters of extract was injected by PAL CTC autosampler via a 10 μl stainless steel loop into a 250 mm×2.0 mm, 4 μm polymer based NH2 HPLC column (Asahipak NH2P-40 2E, Showa Denko America, Inc., NY) held at 25° C. for chromatographic separation. The mobile phase was solvent A: 95% water with 20 mM (NH4)2CO3 (Sigma, Fluka Cat #74415-250G-F), 5% acetonitrile, and 38 mM NH4OH (Sigma, Fluka Cat #17837-100ML), final pH 9.75; solvent B: 100% acetonitrile. Separation was achieved using the following gradient: 0-3.5 min: 95% B, 3.6-8 min: 85% B, 8.1-13 min: 75% B, 13.5-35 min: 0% B, 36-46 min: 95% B, 46.1 min: end. The flow rate was 200 μl/min. Pump pressures ranged from 920-2600 psi over the course of the gradient. All the samples were kept at 4° C. during analysis. The chromatographic peaks were identified using MultiQuant (v3.0, Sciex), confirmed by manual inspection, and the peak areas integrated. […]
# [1] = S-Adenosylhomocysteine, 6-weeks
# [2] = SAM, SAH, Methionine, Cysteine, Glutathione, 2-days
# [3] = SAM, SAH, Methionine, Cysteine, Glutathione, 6-weeks
# [4] = Sphingomyelin Metabolism, 2-days
# [5] = Sphingomyelin Metabolism, 6-weeks
# [6] = Subtotal, all pathways, 6-weeks
# [7] = Subtotals, all pathways, 2-days
# [8] = Taurine, Hypotaurine Metabolism, 2-days
# [9] = Tryptophan, Kynurenine, Serotonin, Melatonin, 6-weeks
# [10] = Tryptophan, Kynurenine, Serotonin, 2-days
# [11] = Tyrosine and Phenylalanine Metabolism, 2-days
smiles,measurement,setting,value
"Cc1ccc(C(=O)Nc2ccc(S(=O)(=O)O)c3cc(S(=O)(=O)O)cc(S(=O)(=O)O)c23)cc1NC(=O)c1cccc(NC(=O)Nc2cccc(C(=O)Nc3cc(C(=O)Nc4ccc(S(=O)(=O)O)c5cc(S(=O)(=O)O)cc(S(=O)(=O)O)c45)ccc3C)c2)c1 [Suramin, suramin]",Fraction of Impact (VIP Score) Explained (% of 119.7),"Purine Metabolism, 2-days",15%
same,Impact (Sum VIP Score),"Purine Metabolism, 2-days",17.6
same,Increased,"Purine Metabolism, 2-days",4
same,Observed Hits in the Top 61 Metabolites,"Purine Metabolism, 2-days",9
same,Decreased,"Purine Metabolism, 6-weeks",2
same,Fold Enrichment (Obs/Exp),"Purine Metabolism, 6-weeks",1.7
same,Fraction of Impact (VIP Score) Explained (% of 94.6),"Purine Metabolism, 6-weeks",11%
same,Impact (Sum VIP Score),"Purine Metabolism, 6-weeks",10.2
same,Increased,"Purine Metabolism, 6-weeks",3
same,Observed Hits in the Top 48 Metabolites,"Purine Metabolism, 6-weeks",5
same,Linear Ratio,"Purine, 6-weeks",1.307
same,VIP Score,"Purine, 6-weeks",1.980
same,Z Abs,"Purine, 6-weeks",1.650
same,Z Score,"Purine, 6-weeks",1.650
same,Decreased,"Pyrimidine Metabolism, 2-days",1
same,Fold Enrichment (Obs/Exp),"Pyrimidine Metabolism, 2-days",1.6
same,Fraction of Impact (VIP Score) Explained (% of 119.7),"Pyrimidine Metabolism, 2-days",4%
same,Impact (Sum VIP Score),"Pyrimidine Metabolism, 2-days",4.3
same,Increased,"Pyrimidine Metabolism, 2-days",1
same,Observed Hits in the Top 61 Metabolites,"Pyrimidine Metabolism, 2-days",2
same,Decreased,"Pyrimidine Metabolism, 6-weeks",0
same,Fold Enrichment (Obs/Exp),"Pyrimidine Metabolism, 6-weeks",2.0
same,Fraction of Impact (VIP Score) Explained (% of 94.6),"Pyrimidine Metabolism, 6-weeks",4%
same,Impact (Sum VIP Score),"Pyrimidine Metabolism, 6-weeks",4.2
same,Increased,"Pyrimidine Metabolism, 6-weeks",2
same,Observed Hits in the Top 48 Metabolites,"Pyrimidine Metabolism, 6-weeks",2
same,Linear Ratio,[1],1.417
same,VIP Score,[1],1.894
same,Z Abs,[1],0.971
same,Z Score,[1],0.971
same,Decreased,[2],1
same,Fold Enrichment (Obs/Exp),[2],1.4
same,Fraction of Impact (VIP Score) Explained (% of 119.7),[2],5%
same,Impact (Sum VIP Score),[2],5.6
same,Increased,[2],2
same,Observed Hits in the Top 61 Metabolites,[2],3
same,Decreased,[3],0
same,Fold Enrichment (Obs/Exp),[3],3.0
same,Fraction of Impact (VIP Score) Explained (% of 94.6),[3],10%
same,Impact (Sum VIP Score),[3],9.5
same,Increased,[3],5
same,Observed Hits in the Top 48 Metabolites,[3],5
same,Linear Ratio,"SM(d18:1/18:2), 6-weeks",1.424
same,VIP Score,"SM(d18:1/18:2), 6-weeks",1.508
same,Z Abs,"SM(d18:1/18:2), 6-weeks",0.750
same,Z Score,"SM(d18:1/18:2), 6-weeks",0.750
same,Linear Ratio,"SM(d18:1/26:0 OH), 6-weeks",1.671
same,VIP Score,"SM(d18:1/26:0 OH), 6-weeks",2.622
same,Z Abs,"SM(d18:1/26:0 OH), 6-weeks",2.002
same,Z Score,"SM(d18:1/26:0 OH), 6-weeks",2.002
same,Decreased,[4],2
same,Fold Enrichment (Obs/Exp),[4],0.4
same,Fraction of Impact (VIP Score) Explained (% of 119.7),[4],3%
same,Impact (Sum VIP Score),[4],3.6
same,Increased,[4],0
same,Observed Hits in the Top 61 Metabolites,[4],2
same,Decreased,[5],0
same,Fold Enrichment (Obs/Exp),[5],0.5
same,Fraction of Impact (VIP Score) Explained (% of 94.6),[5],4%
same,Impact (Sum VIP Score),[5],4.1
same,Increased,[5],2
same,Observed Hits in the Top 48 Metabolites,[5],2
same,Decreased,[6],6
same,Increased,[6],42
same,Decreased,[7],23
same,Increased,[7],38
same,Decreased,[8],1
same,Fold Enrichment (Obs/Exp),[8],3.5
same,Fraction of Impact (VIP Score) Explained (% of 119.7),[8],2%
same,Impact (Sum VIP Score),[8],2.0
same,Increased,[8],0
same,Observed Hits in the Top 61 Metabolites,[8],1
same,Linear Ratio,"Tiglylglycine, 6-weeks",1.302
same,VIP Score,"Tiglylglycine, 6-weeks",1.878
same,Z Abs,"Tiglylglycine, 6-weeks",1.310
same,Z Score,"Tiglylglycine, 6-weeks",1.310
same,Decreased,[9],0
same,Fold Enrichment (Obs/Exp),[9],1.5
same,Fraction of Impact (VIP Score) Explained (% of 94.6),[9],2%
same,Impact (Sum VIP Score),[9],2.1
same,Increased,[9],1
same,Observed Hits in the Top 48 Metabolites,[9],1
same,Decreased,[10],0
same,Fold Enrichment (Obs/Exp),[10],1.2
same,Fraction of Impact (VIP Score) Explained (% of 119.7),[10],1%
same,Impact (Sum VIP Score),[10],1.6
same,Increased,[10],1
same,Observed Hits in the Top 61 Metabolites,[10],1
same,Decreased,[11],0
same,Fold Enrichment (Obs/Exp),[11],2.4
same,Fraction of Impact (VIP Score) Explained (% of 119.7),[11],2%
same,Impact (Sum VIP Score),[11],1.8
